Values of other authors, collected in patent US20040265344A1, “Aloe suppositories” (priority 2003, published 2004).

Columns and labels:
[1] = test system: rat colonic mucosa sodium and potassium adenosine triphosphatase (ATP-ase); details: in vitro

| SMILES | effect on the rise in residual fluid volume (residual fluid volume) | effect on rat colonic mucosa sodium and potassium ATP-ase [1] |
| --- | --- | --- |
| CN(C)C(=O)C(CCN1CCC(O)(c2ccc(Cl)cc2)CC1)(c1ccccc1)c1ccccc1 [loperamide] | did not completely inhibit |  |
| O=C1c2c(O)cccc2Cc2cc(CO)cc(O)c21 [Aloe-emodin-9-anthrone] |  | inhibited |
